In ChEMBL document CHEMBL6096670, “Design, synthesis and biological evaluation of novel β-carbolines as antitumor agents via targeting autophagy in colorectal cancer” (Eur J Med Chem, 2025):
pIC50: −log10 of the molar value. Activity calls are given as the source filed them. No cut-off for these calls is given here.

Assays:
HCT-116 [1] = test: Induction of apoptosis in human HCT-116 assessed as early apoptotic cells at 2 uM pretreated with Z-VAD-FMK for 30 mins followed by compound addition and measured after 24 hrs by Annexin V-FITC/PI double staining based flow cytometry (reference value: 0.95%); assay type: functional
HCT-116 [2] = test: Upregulation of autophagy pathway related genes expression in human HCT-116 cells at 1 uM incubated for 24 hrs by GSVA enrichment analysis; assay type: functional, cell-based
[3] = Toxicity in female BALB/c mouse implanted with mouse CT26 cells assessed as change in liver morphology at 1 to 2 mg/kg administrated once every 3 days for 18 days by H&E staining based analysis; assay type: organism-based; conditions: in vivo, 432 h, dose 1-2 mg/kg, time 18 day
HCT-116 [4] = test: Antiproliferative activity against human HCT-116 assessed as inhibition of cell viability at 0.5 to 2 uM by CCK8 method; assay type: functional, cell-based; conditions: dose 0.5-2 µM, time <= 7.0 day
HCT-116 [5] = test: Induction of apoptosis in human HCT-116 assessed as early apoptotic cells at 2 uM incubated for 24 hrs Annexin V FITC/PI double staining based flow cytometry (reference value: 1.07 %); assay type: functional
[6] = Toxicity in female BALB/c mouse implanted with mouse CT26 cells assessed as change in spleen morphology at 1 to 2 mg/kg administrated once every 3 days for 18 days by H&E staining based analysis; assay type: organism-based; conditions: in vivo, 432 h, dose 1-2 mg/kg, time 18 day
HCT-116 [7] = test: Induction of autophagy pathway in human HCT-116 cells at 1 uM incubated for 24 hrs by GSEA analysis; assay type: functional, cell-based
HCT-116 [8] = test: Inhibition of colony formation in ATG5 knockout human HCT-116 cells assessed as reduction in number of colonies at 1 to 4 uM measured after 24 hrs by crystal violet staining based analysis; assay type: functional, cell-based; conditions: dose 1-4 µM
HCT-116 [9] = test: Induction of morphological changes in human HCT-116 cells assessed as appearance of inflated cell shape at 0.5 to 2 uM by microscopic analysis; assay type: functional, cell-based; conditions: dose 0.5-2 µM
HCT-116 [10] = test: Induction of morphological changes in human HCT-116 cells assessed as suppression of cell growth at 0.5 to 2 uM by microscopic analysis; assay type: functional, cell-based; conditions: dose 0.5-2 µM
HCT-116 [11] = test: Induction of apoptosis in human HCT-116 assessed as viable cells at 2 uM pretreated with Z-VAD-FMK for 30 mins followed by compound addition and measured after 24 hrs by Annexin V-FITC/PI double staining based flow cytometry (reference value: 90.8%); assay type: functional; conditions: read-out: Activity
CT26 [12] = test: Antitumor activity against mouse CT26 cells implanted in female BALB/c mouse assessed as reduction in tumor weight at 1 mg/kg administrated once every 3 days for 18 days relative to control; assay type: functional; design: scale not given: the % may be the effect or the level left; conditions: time 18 day
HCT-116 [13] = test: Inhibition of cell migration in human HCT-116 cells at 1 to 2 uM incubated for 24 hrs by crystal violet staining based transwell migration assay; assay type: functional; conditions: dose 1-2 µM
HCT-116 [14] = test: Induction of apoptosis in human HCT-116 assessed as late apoptotic cells at 2 uM incubated for 24 hrs Annexin V FITC/PI double staining based flow cytometry (reference value: 8.02 %); assay type: functional
[15] = Toxicity in female BALB/c mouse implanted with mouse CT26 cells assessed as change in body weight at 1 to 2 mg/kg administrated once every 3 days for 18 days; assay type: organism-based; conditions: in vivo, 432 h, dose 1-2 mg/kg, time 18 day
[16] = Toxicity in female BALB/c mouse implanted with mouse CT26 cells assessed as change in lung morphology at 1 to 2 mg/kg administrated once every 3 days for 18 days by H&E staining based analysis; assay type: organism-based; conditions: in vivo, 432 h, dose 1-2 mg/kg, time 18 day
CT26 [17] = test: Antitumor activity against mouse CT26 cells implanted in female BALB/c mouse assessed as reduction in tumor volume at 2 mg/kg administrated once every 3 days for 18 days; assay type: functional, organism-based; conditions: time 18.0 day
HCT-116 [18] = test: Effect on PARP expression level in Bax knockout human HCT-116 cells at 1 to 2 uM incubated for 24 hrs by Western blot analysis; assay type: functional, cell-based; conditions: dose 1-2 µM
HCT-116 [19] = test: Inhibition of colony formation in wildtype human HCT-116 cells assessed as reduction in number of colonies at 1 to 4 uM measured after 24 hrs by crystal violet staining based analysis; assay type: functional, cell-based; conditions: dose 1-4 µM
CT26 [20] = test: Antitumor activity against mouse CT26 cells implanted in female BALB/c mouse assessed as reduction in tumor volume at 1 to 2 mg/kg administrated once every 3 days for 18 days; assay type: functional, organism-based; conditions: dose 1-2 mg/kg, time 18.0 day
HCT-116 [21] = test: Induction of apoptosis in human HCT-116 assessed as early apoptotic cells at 1 uM pretreated with Z-VAD-FMK for 30 mins followed by compound addition and measured after 24 hrs by Annexin V-FITC/PI double staining based flow cytometry (reference value: 0.95%); assay type: functional
CWR22R = test: Antiproliferative activity against human 22Rv1 cells assessed as inhibition of cell growth incubated for 48 hrs by MTT assay; assay type: functional, cell-based; conditions: 22Rv1, 48 h
HCT-116 [22] = test: Induction of apoptosis in human HCT-116 cells assessed as effect on cleaved PARP expression level at 0.5 to 2 uM incubated for 24 hrs by Western blot analysis; assay type: functional, cell-based; conditions: dose 0.5-2 µM
HCT-116 [23] = test: Effect on C-PARP expression level in p53 knockout human HCT-116 cells at 1 to 2 uM incubated for 24 hrs by Western blot analysis; assay type: functional, cell-based; conditions: dose 1-2 µM
HCT-116 [24] = test: Induction of apoptosis in human HCT-116 assessed as necrotic cells at 2 uM incubated for 24 hrs Annexin V FITC/PI double staining based flow cytometry (reference value: 0.94 %); assay type: functional
[25] = Toxicity in female BALB/c mouse implanted with mouse CT26 cells assessed as change in heart morphology at 1 to 2 mg/kg administrated once every 3 days for 18 days by H&E staining based analysis; assay type: organism-based; conditions: in vivo, 432 h, dose 1-2 mg/kg, time 18 day
HCT-116 [26] = test: Inhibition of colony formation in human HCT-116 cells assessed as reduction in number of colonies at 0.5 to 2 uM measured after 24 hrs by crystal violet staining based analysis; assay type: functional, cell-based; conditions: dose 0.5-2 µM
HCT-116 [27] = test: Induction of apoptosis in human HCT-116 cells assessed as effect on cleaved caspase-3 expression level at 0.5 to 2 uM incubated for 24 hrs by Western blot analysis; assay type: functional, cell-based; conditions: dose 0.5-2 µM
HCT-116 [28] = test: Effect on cleaved caspase 3 expression level in Bax knockout human HCT-116 cells at 1 to 2 uM incubated for 24 hrs by Western blot analysis; assay type: functional, cell-based; conditions: dose 1-2 µM
HCT-116 [29] = test: Induction of apoptosis in human HCT-116 assessed as viable cells at 1 uM incubated for 24 hrs Annexin V FITC/PI double staining based flow cytometry (Rvb =90.0%); assay type: functional; conditions: read-out: Activity
HCT-116 [30] = test: Effect on caspase 3 expression level in Bax knockout human HCT-116 cells at 1 to 2 uM incubated for 24 hrs by Western blot analysis; assay type: functional, cell-based; conditions: dose 1-2 µM
A-375 = test: Antiproliferative activity against human A-375 cells assessed as inhibition of cell growth incubated for 48 hrs by MTT assay; assay type: functional, cell-based; conditions: A-375, 48 h
HCT-116 [31] = test: Induction of autophagy in human HCT-116 cells transfected with tandem mRFP-GFP-LC3 plasmid assessed as reduction in p62 expression incubated for 24 hrs by Western blot analysis; assay type: functional, cell-based; conditions: dose 0.5-20 µM
HCT-116 [32] = test: Induction of autophagy in ATG5 knockout human HCT-116 cells assessed as increase in LC3-II expression at 1 to 2 uM incubated for 24 hrs by Western blot analysis; assay type: functional, cell-based; conditions: dose 1-2 µM

In the case of `CCN(CC)CCCNCc1cc2c3ccccc3n(CCCc3ccccc3)c2c(CNCCCN(CC)CC)n1`, the Activity (HCT-116 [1]) was 2.28%, the Activity (HCT-116 [2]) was “Active” and the Activity [3] was “Non-toxic”. For the same molecule, the Activity (HCT-116 [4]) was “Time-dependent-effect”, the Activity (HCT-116 [5]) was 2.78% and the Activity [6] was “Non-toxic”. The Activity (HCT-116 [7]) was “Active”, the inhibition (HCT-116 [8]) was “Active; Insignificant Decrease In Number Of Colonies Observed” and the Activity (HCT-116 [9]) was “Active”. The Activity (HCT-116 [10]) was “Active”, the viability at 2 µM (HCT-116 [11]) was 82.3% and the Activity (CT26 [12]) was 56.5%. The inhibition (HCT-116 [13]) was “Active”, the Activity (HCT-116 [14]) was 13.9% and the Activity [15] was “Non-toxic”. The Activity [16] was “Non-toxic”, the Activity (CT26 [17]) was “Active; Stronger Than 4Mg/Kg Of Cisplatin Treatment Group” and the Activity (HCT-116 [18]) was “inactive”. For the same molecule, the inhibition (HCT-116 [19]) was “Active”, the Activity (CT26 [20]) was “Active” and the Activity (HCT-116 [21]) was 1.75%. The pIC50 (CWR22R) was 5.39, the Activity (HCT-116 [22]) was “inactive” and the Activity (HCT-116 [23]) was “inactive”. For the same molecule, the Activity (HCT-116 [24]) was 2.86%, the Activity [25] was “Non-toxic” and the inhibition (HCT-116 [26]) was “Active”. For the same molecule, the Activity (HCT-116 [27]) was “inactive”, the Activity (HCT-116 [28]) was “inactive” and the viability at 1 µM (HCT-116 [29]) was 84.6%. The Activity (HCT-116 [30]) was “inactive”, the pIC50 (A-375) was 5.35 and the Activity (HCT-116 [31]) was “Dose-dependent-effect”. The Activity (HCT-116 [32]) was “inactive”.
